One molecule from publication PMC11926788, “Effect of SSR504734, a Selective Glycine Transporter Type 1 Inhibitor, on Seizure Thresholds, Neurotransmitter Levels, and Inflammatory Markers in Mice” (ACS Chemical Neuroscience, 2025) can be followed below.

Structures are written as SMILES. Structures can show the parent of a compound that is named as a salt.

A short description of data set [1]: Metabolic stability in human liver microsomes (HLMs). It counts as in vitro ADME. The method, then:
A series of in vitro ADME-Tox tests were performed for SSR504734 in order to estimate its drugability. The ADME-Tox parameters including permeability, plasma protein binding, metabolic stability, neurotoxicity, and hepatotoxicity were carried out as described previously.[31],[32] The ability of SSR504734 to penetrate through the biological membrane by passive diffusion was estimated by the Gentest Precoated PAMPA Plate System (Corning, Tewksbury, MA) and expressed as the permeability coefficient (Pe). The protein binding analysis was performed by using the commercial TRANSIL^XL PPB test, which mimics in vitro physiological plasma conditions where human serum albumin (HAS) and alpha-1-acid glycoprotein AGP are present in a 24:1 ratio. The human metabolism of SSR504734 was studied using human liver microsomes (HLMs) provided by Sigma-Aldrich. The hepatotoxicity and neurotoxicity were estimated in cellular models with the use of hepatoma HepG2 and neuroblastoma SH-SY5Y cell lines to perform the preliminary safety tests. The cells were incubated with SSR504734 at the concentration range of 0.1–100 μM. 1 μM cytostatic drug doxorubicin (DX) was used as the reference.

Data set [2] is described as follows: Grip strength test (neuromuscular strength). It counts as in vivo, mice. The method, then:
The effect of SSR504734 on neuromuscular strength was determined using the grip-strength apparatus (BioSeb, Chaville, France). The apparatus consists of a steel wire grid of 8 × 8 cm, connected to an isometric force transducer. Each mouse was held by the tail, allowing it to grasp the grid with its forepaws only and steadily pulled back until it released the grid. The maximum grip strength value (in newtons; N) was measured three times for each animal. The mean force was normalized to body weight and expressed in mN/g ± SD for each experimental group. In order to minimize the number of animals used, a grip-strength test was carried out shortly before seizure tests.
Table S2. Time-course effect of SSR5504734 on neuromuscular strength and motor […]
Group Neuromuscular strength Impairment of motor
SSR504734 was dissolved in normal saline and injected i.p. at the dose of 30 mg/kg. Control animals received saline. The data are expressed as the mean ± SD of grip strengths measured in millinewtons per gram of mouse body weight (mN/g) from the grip-strength test assessing […]
coordination impairment in the chimney test. Each experimental group consisted of 12 animals. The grip-strength test results were analyzed using a one-way ANOVA with Dunnett’s post hoc test, while the data from the chimney test were statistically evaluated using Fisher’s exact probability test. *p<0.05 vs. control group.
Table S3. Effect of acute and 14-day treatment with SSR504734 on neuromuscular strength and motor coordination in mice
In acute studies, SSR504734 and sodium valproate (VPA; positive control) were injected i.p.
60 and 15 min before the test, respectively. In subchronic studies, SSR504734 and VPA were injected i.p. every 24 h for 14 days. The last administration was made 60 and 15 min before the tests, respectively. Control animals received saline. Each experimental group consisted of 12 animals. The grip-strength test results were analyzed using a one-way ANOVA with […]
Fisher’s exact probability test.

The subject of data set [3] is tonic hindlimb extension in the MEST test in mice. Kind of data set: Maximal electroshock seizure threshold (MEST) test. It counts as in vivo. The method, then: A sinusoidal current alternation was delivered via saline-soaked transcorneal electrodes. Before stimulation, an ocular anesthetic (1% tetracaine hydrochloride solution obtained from Sigma-Aldrich, St. Louis, MO, USA) was administered to each eye of the mice. During stimulation, the mice were manually immobilized in a hand for 3–5 s and immediately relocated to a transparent box for behavioral observation after the stimulation. Hindlimb tonic extension was taken as an end point. Two experimental approaches were employed: (1) the maximal electroshock seizure threshold (MEST) test at varied current intensities and (2) the maximal electroshock (MES) test at a fixed current intensity.
In the MEST test, seizure thresholds were determined using the “up-and-down” method described by Kimball et al.[28] […] Each mouse was stimulated only once.
In general terms: In the maximal electroshock model the usual endpoint is tonic extension of the hind limbs.

Usually fraction remaining stands for what is left of the initial amount, in per cent. Lower therefore signals a greater loss. As for `O=C(NC(c1ccccc1)C1CCCCN1)c1cccc(C(F)(F)F)c1Cl` [SSR504734, 2-chloro-N-[(S)-phenyl[(2S)-piperidin-2-yl]methyl]-3-trifluoromethyl benzamide monohydrochloride], the metabolized in data set [1] (120 min incubation with HLMs, UPLC analysis) came out at 5%. In data set [1] (after 120 min of incubation with human liver microsomes), the amount remaining at 2 h was determined as 94.7%. In addition, the “metabolic pathway, metabolite M1” value in data set [1] (after incubation with HLMs) was “hydroxylation, oxidation, and dehydrogenation”. The “metabolic pathway, metabolite M2” value in data set [1] (after incubation with HLMs) is “dehydrogenation”. Besides, in data set [1] (after incubation with HLMs), the “metabolic pathway, metabolite M3” value is “oxidation”. In addition, the Neuromuscular strength in data set [2] (30 mg/kg i.p., 30 min) was found to be 30.33 ± 5.38 mN/g; in data set [2] (30 mg/kg i.p., 60 min), 33.63± 4.94 mN/g; in data set [2] (30 mg/kg i.p., 120 min), 33.49 ± 3.76 mN/g; in data set [2] (30 mg/kg i.p., 240 min), 32.13 ± 3.42 mN/g; in data set [2] (14-day treatment, 3 mg/kg i.p.) it was 25.02 ± 5.35 mN/kg; in data set [2] (14-day treatment, 10 mg/kg i.p.), 23.48 ± 5.98 mN/kg. In addition, the Neuromuscular strength was determined as 27.76 ± 6.00 mN/kg in data set [2] (14-day treatment, 30 mg/kg i.p.); 31.15 ± 5.55 mN/kg in data set [2] (acute treatment, 10 mg/kg i.p.); 31.00 ± 9.46 mN/kg in data set [2] (acute treatment, 30 mg/kg i.p.); 30.31 ± 5.08 mN/kg in data set [2] (acute treatment, 50 mg/kg i.p.). For the same molecule, the “fold increase of seizure threshold (CS50), time-course” value in data set [3] (30 mg/kg i.p., 60 and 120 min after administration, vs control) is reported as approximately 1.3 fold. The “effect on seizure threshold (CS50), time-course” value in data set [3] (30 mg/kg i.p., at 30, 60, 120 and 240 min) was “significantly raised the seizure threshold”. Further, in data set [3] (14-day repeated treatment, 30 mg/kg i.p.), the “fold increase in CC50 value” stood at 1.2 fold. Besides, the “effect on seizure threshold” value in data set [3] (14-day repeated treatment, 3 and 10 mg/kg i.p.) is on record as “no changes in seizure threshold”. Also, the “effect on threshold for tonic hindlimb extension” value in data set [3] (acute, 10 mg/kg i.p., 60 min before test) is recorded as “ineffective”. Besides, the “fold increase of current intensity necessary to induce hindlimb tonus” value in data set [3] (acute, 30 mg/kg i.p., 60 min before test) was determined as 1.2 fold; in data set [3] (acute, 50 mg/kg i.p., 60 min before test), 1.6 fold.
